Test system: transient focal cerebral ischemia (tMCAO) in mice
Assay: Grid walking foot-fault test after tMCAO
Assay type: in vivo, mouse
Conditions: day 3 post-stroke
From the text: FIGS. 2A-2D: Efficacy of NKCC1 inhibitors on improving neurological function in mice after tMCAO (see Example 3). (A) Neurological score, (B) corner test, (C) foot-fault test, and (D)-(E) adhesive tape test during 1-14 day after tMCAO. Data are mean±SD, n=4-9. *p<0.05 for DMSO vs STS66, **p<0.05 for DMSO vs STS5, ***p<0.05 for DMSO vs BMT, #p<0.05 for BMT vs STS66, ###p<0.05 for STS5 vs STS66.
Transient focal cerebral ischemia was induced in mice by intraluminal occlusion of the left middle cerebral artery (MCA) for 50 min as described previously (Chen H et al., 2005). Mice were anesthetized with 3% isoflurane in 70%: 30% N2O/O2 until they were unresponsive to the tail pinch test. Animals were then fitted with a nose cone blowing 1.5% isoflurane for anesthesia maintenance. The left common carotid artery was exposed and the occipital artery branches of the external carotid artery were isolated and coagulated. The internal carotid artery was isolated and the extracranial branch was dissected and ligated. […]
The grid walking test is sensitive to deficits in descending motor control. […] The data were expressed as the number of foot fault errors made by the forelimbs contralateral to the injured hemisphere as a percentage of total steps (Jun Zhang, et al., 2017).

CCCCNc1cc(CNCC(F)(F)F)cc(S(N)(=O)=O)c1Oc1ccccc1 [STS66, 3-(Butylamino)-2-phenoxy-5-[(2,2,2-trifluoroethylamino)methyl]benzenesulfonamide]
foot-fault rate: 12.5±2.5%
